Values joined by “and” are separate entries in the source; they are usually repeats but may differ in a detail not shown here. Equal entries are not always repeated.
Columns and labels:
KPC mouse model of PDAC = assay: Overt metastatic lesions observed during necropsy, KPC survival study; assay type: in vivo; conditions: for Ascites / overt metastatic lesions, Diaphragm / overt metastatic lesions, Liver / overt metastatic lesions, Lungs / overt metastatic lesions, Small intestine: KPC mice
Description: Fig. 4 PXS-5505 administered in a KPC in vivo survival study. a, Schematic of the KPC in vivo survival study. Presence of a primary tumor in KPC mice was confirmed by two independent researchers (positive diagnosis) before commencement of daily treatment (Tx) on one of four treatment arms as follows: vehicle, 0.9% saline; Gem, twice-weekly gemcitabine (100 mg kg^−1 i.p.); PXS-5505, daily PXS-5505 at 20 mg kg^−1 i.p.; and PXS-5505 + Gem, daily PXS-5505 at 20 mg kg^−1 i.p. + twice-weekly gemcitabine (100 mg kg^−1 i.p.). b, Table of median survival (since diagnosis/commencement of treatment) across the four treatment groups (n = 30 biologically independent animals (vehicle), n = 31 biologically independent animals (Gem), n = 36 biologically independent animals (PXS-5505), n = 46 biologically independent animals (PXS-5505 + Gem)). c, Kaplan–Meier curves for overall survival across treatment arms (n = 30 biologically independent animals (vehicle), n = 31 biologically independent animals (Gem), n = 36 biologically independent animals (PXS-5505), n = 46 biologically independent animals (PXS-5505 + Gem)). P values determined by log-rank (Mantel–Cox) test. d, Representative maximum intensity projections of SHG multiphoton imaging for tumors from each treatment group (n = 1 FOV taken from one biologically independent animal per group) at end point (scale bars, 100 μm) and quantification of SHG peak signal intensity (n = 5 biologically independent animals per group and five FOV per animal). Data are mean ± s.d. […] Quantification of metastases (n = 18 biologically independent animals (vehicle), n = 18 biologically independent animals (Gem), n = 17 biologically independent animals (PXS-5505), n = 15 biologically independent animals (PXS-5505 + Gem)). Data are mean ± s.d.
We quantified presence of overt metastatic dissemination to organs across the different treatment groups (Fig. 4f).
For the KPC autochthonous model, gemcitabine HCl (Jomar Life Research) or vehicle control (0.9% saline) was administered by i.p. injection twice weekly (100 mg kg^−1 in saline) on day 2 and 4 of the treatment cycle until the end point was reached. GLP-grade PXS-5505 (20 mg kg^−1 in saline) or vehicle (0.9% saline) was administered daily by i.p. injection. Treatment of mice was initiated upon detection of a palpable tumor, verified by two independent researchers and monitoring of mice continued daily until the experimental end point. End points were defined as development of ascites, overnight weight loss >10% of body weight, hunching posture and/or signs of distress and/or suffering, total weight loss ≥20% from maximum body weight or tumor interfering with mobility and access to food and water. The maximal tumor burden allowed by ethics was not exceeded. At the end point, primary tumors and secondary metastatic organs (including liver, small intestine, diaphragm and lungs) were collected and samples were taken for formalin fixation overnight, unconfined compression analysis and snap-frozen for tissue banking. Fixed tissues were processed according to standard histology protocols and paraffin-embedded.

[1] = system: KPC CCs liver colonization; assay: Intrasplenic model of liver colonization, early administration of treatment; assay type: in vivo, mouse; conditions: for metastases/mm2: early administration, individual animals; for number of metastatic foci in liver / size of metastatic foci in liver: treatment from day 1 until day 10
Description: Fig. 5 PXS-5505 administered in intrasplenic models of liver colonization. a, Schematic of the intrasplenic model of liver colonization with early administration of treatment. CCs were implanted into the spleen of BALB/c-Fox1nuAusb mice under anesthesia on day 0. Treatment with 0.9% saline (vehicle); twice-weekly Gem (100 mg kg^−1 i.p.) (Gem); daily PXS-5505 at 20 mg kg^−1 i.p. (PXS-5505) or daily PXS-5505 at 20 mg kg^−1 i.p. + twice-weekly Gem at 100 mg kg^−1 i.p. (PXS-5505 + Gem) was administered from day 1. At the end point (day 10) livers were collected and H&E-stained for scoring. Representative images of H&E-stained liver (taken from one biologically independent animal). Scale bar, 100 μm. b, Representative images of H&E-stained livers from each treatment group (n = 1 FOV taken from one biologically independent animal per group). Scale bars, 100 μm. c, Quantification of metastases per mm^2 (n = 9 biologically independent animals per group). Data are mean ± s.d. […] Data are mean ± s.d. Two-tailed P values were determined by an unpaired, nonparametric t-test with a Mann–Whitney U-test correction (comparison between two groups). e, Schematic of intrasplenic model of liver colonization with late administration of treatment. CCs were implanted into the spleen of BALB/c-Fox1nuAusb mice under anesthesia on day 0. Treatment with 0.9% saline (vehicle); twice-weekly Gem (100 mg kg^−1 i.p.) (Gem); daily PXS-5505 at 20 mg kg^−1 i.p. (PXS-5505); or daily PXS-5505 at 20 mg kg^−1 i.p. + three doses of Gem (100 mg kg^−1 i.p. (PXS-5505 + Gem) was administered from day 4. Representative images of H&E-stained liver (taken from one biologically independent animal). Scale bar, 100 μm. f, Quantification of metastases at endpoint (n = 10 biologically independent animals per treatment group, n = 5 biologically independent animals at day 4 for confirmation of overt metastases). Data are mean ± s.d. P values were determined by an unpaired, nonparametric t-test with a Mann–Whitney U-test correction (comparison between two groups). g, Representative images of H&E-stained livers from each treatment group. Scale bars, 100 μm. Source data
For the intrasplenic models, animals were randomized before receiving treatment. GLP-grade PXS-5505 (20 mg kg^−1) was administered daily i.p. (starting day 0 for the early stage and day 4 for the late stage) until the end point and gemcitabine (100 mg kg^−1) was administered on days 3, 6 and 9 for the early stage and days 5, 7 and 10 for the late stage.
KPC CCs (5 × 10^5 cells per mouse in 50 μl Hanks balanced saline solution) were slowly injected into the spleens of 8-week-old female BALB/c-Fox1nuAusb mice under anesthesia (isoflurane […], O2 1 l min^−1 with vacuum) as previous described. For the duration of the study mice were kept in conventional caging with environmental enrichment, access to standard chow, water ad libitum and 12-h light–dark cycle at ambient temperature and humidity. For intrasplenic studies, mice were culled at defined end points (10 d for early colonization studies and 11 d for late colonization studies). Animals with non-tumor-related complications that led to a premature end point were censored. At the end point, mice were imaged by whole-body bioluminescent imaging using an IVIS Spectrum (Caliper LS), culled and livers were removed for additional bioluminescent imaging before formalin fixing and paraffin embedding.
The 4-µm formalin-fixed paraffin-embedded (FFPE) sections were cut and stained for H&E following standard histopathology methodologies or stained for CK19 using the Bond RX H2(30) protocol detailed above. Whole liver sections were then digitized on an Aperio slide scanner for blinded analysis. The total number of liver metastases were quantified and determined using QuPath[57].

SMILES	Ascites (number of mice) (KPC mouse model of PDAC)	overt metastatic lesions, Diaphragm (number of mice) (KPC mouse model of PDAC)	overt metastatic lesions, Liver (number of mice) (KPC mouse model of PDAC)	overt metastatic lesions, Lungs (number of mice) (KPC mouse model of PDAC)	overt metastatic lesions, Small intestine (number of mice) (KPC mouse model of PDAC)	Ascites (KPC mouse model of PDAC) [%]	overt metastatic lesions, Diaphragm (KPC mouse model of PDAC) [%]	overt metastatic lesions, Liver (KPC mouse model of PDAC) [%]	overt metastatic lesions, Lungs (KPC mouse model of PDAC) [%]	overt metastatic lesions, Small intestine (KPC mouse model of PDAC) [%]	metastases/mm2 [1]	number of metastatic foci in liver [1]	size of metastatic foci in liver [1]
Nc1ccn([C@@H]2O[C@H](CO)[C@@H](O)C2(F)F)c(=O)n1 [Gem, gemcitabine]	1/20	3/20	3/20	5/20	9/20	5	15	15	25	45	1.138e-5 /mm2 and 9.508e-5 /mm2 and 3.779e-5 /mm2 and 0 /mm2 and 1.36e-5 /mm2 and 7.872e-6 /mm2 and 6.17e-6 /mm2	fewer	smaller
Cl.Cl.NC/C=C(\F)CS(=O)(=O)c1cccc2cccnc12.O [PXS-5505, (Z)-3-fluoro-4-(quinolin-8-ylsulfonyl)but-2-en-1-amine dihydrochloride monohydrate]	3/23	2/23	3/23	2/23	8/23	13	9	13	9	35	0.0002211 /mm2 and 8.732e-6 /mm2 and 2.758e-6 /mm2 and 0.0001431 /mm2 and 0.0002677 /mm2 and 0.0002826 /mm2 and 0.0003511 /mm2 and 0.0007717 /mm2 and 3.2079e-5 /mm2	small decrease in number	not size of metastatic foci

Source: PMC10518255, “A first-in-class pan-lysyl oxidase inhibitor impairs stromal remodeling and enhances gemcitabine response and survival in pancreatic cancer” (Nature Cancer, 2023)
